According to US20130251730A1, “Compounds and Mixtures Influencing Inflammatory States” (SYMRISE AG, priority 2012, published 2013):
Marks after values point to notes of the source that are not given here.

Experiments:
[1] = tested on: IL-6 release by human gingival fibroblastic cells (HGF-1); experiment: Release of IL-6 by HGF-1 cells after stimulation with 10 μg/ml PG-LPS (magnetic bead assay); type: cell-based
Protocol: Human gingival fibroblastic cells (HGF-1) were sowed out in 24-well plates with 15,000 cells per well and cultivated for 3 to 5 days. DNEM containing 10% FBS, 1% penicillin/streptomycin and 4% glutamine was used as the medium. For determination of the anti-inflammatory action the cells were incubated with 10 μg/ml PG-LPS for 6 and 9 hrs. Subsequently, the release of IL-6 and IL-8 per magnetic bead was determined (Procarta, Affimetrix) using a MAGPIX equipment (Merck-Millipore) and analysed using the Milliplex software (Merck Millipore). In each case 4 samples with two technical replicates were measured. In addition to this control the cells were co-incubated with • (a) 10 μg/ml PG-LPS and also with • (b) solutions of the Herba Santa extract according to Example 1 (HS, containing 21.7% HED, […]); • (c) the flavonoid fraction (“FF”) obtained as a by-product according to Example 4 (containg 41.5% HED, […]); • (d) the extract rich in erionic acid (“ES”) according to Example 4 or isolated erionic acid B (according to Example 2) and • (e) erionic acid C according to Example 3 (each 0,1 μM, 1 μM and 10 μM).
(§1) After incubation the cell culture medium was transferred into an Eppendorf reaction vessel and at 4° C. for 10 min subjected to centrifugation (1000×g) in order to separate the cell depris. The upper layer was stored at −80° C. until the analysis started. The results of the release of IL-6 and […]

[2] = tested on: IL-8 release by human gingival fibroblastic cells (HGF-1); experiment: Release of IL-8 by HGF-1 cells after stimulation with 10 μg/ml PG-LPS (magnetic bead assay); type: cell-based
Protocol: Human gingival fibroblastic cells (HGF-1) were sowed out in 24-well plates with 15,000 cells per well and cultivated for 3 to 5 days. DNEM containing 10% FBS, 1% penicillin/streptomycin and 4% glutamine was used as the medium. For determination of the anti-inflammatory action the cells were incubated with 10 μg/ml PG-LPS for 6 and 9 hrs. Subsequently, the release of IL-6 and IL-8 per magnetic bead was determined (Procarta, Affimetrix) using a MAGPIX equipment (Merck-Millipore) and analysed using the Milliplex software (Merck Millipore). In each case 4 samples with two technical replicates were measured. In addition to this control the cells were co-incubated with • (a) 10 μg/ml PG-LPS and also with • (b) solutions of the Herba Santa extract according to Example 1 (HS, containing 21.7% HED, 0.1 μM, 1 μM and 10 μM calculated on HED); • (c) the flavonoid fraction (“FF”) obtained as a by-product according to Example 4 (containg 41.5% HED, 0,1 μM, 1 μM and 10 μM calculated on HED); • (d) the extract rich in erionic acid (“ES”) according to Example 4 or isolated erionic acid B (according to Example 2) and • (e) erionic acid C according to Example 3 (each 0,1 μM, 1 μM and 10 μM).
as §1

[3] = 10 μg/ml PG-LPS + 1 μg/ml test substance, 6 h
[4] = 10 μg/ml PG-LPS + 1 μg/ml test substance, 9 h
[5] = 10 μg/ml PG-LPS + 10 μg/ml test substance, 6 h
[6] = 10 μg/ml PG-LPS + 10 μg/ml test substance, 9 h
[7] = 10 μg/ml PG-LPS + 100 μg/ml test substance, 6 h
[8] = 10 μg/ml PG-LPS + 100 μg/ml test substance, 9 h
[9] = co-incubation with 10 μg/ml PG-LPS, 6 and 9 hrs, 0.1, 1 and 10 μM

How did the “IL-6 T/C [%]” value [1, 3] turn out when `CC(CCc1cc(C(=O)O)cc2c1OC(C)(C)C(O)C2)C(=O)/C=C/C(C)(C)O` (centres unmarked) [Erionic acid B, 3-hydroxy-8-((E)-7-hydroxy-3,7-dimethyl-4-oxo-oct-5-enyl)-2,2-dimethyl-chroman-6-carboxylic acid] was run?
Its value is 61.93* %.

What about the “IL-6 T/C [%]” value [1, 4] of the same compound?
The value was 77.51* %.

And the “IL-6 T/C [%]” value [1, 5]?
Its value is 102.30%.

What about the “IL-6 T/C [%]” value [1, 6] of the same compound?
The value was 61.47*** %.

What about the “IL-6 T/C [%]” value [1, 7] of the same compound?
Its value is 41.30** %.

What about the “IL-6 T/C [%]” value [1, 8] of the same compound?
Its value is 102.74%.

What about the “release of IL-6” value [1, 9] of the same compound?
Its value is “significant reduction”.

And the “IL-8 T/C [%]” value [2, 3]?
The value was 79.91%.

What about the “IL-8 T/C [%]” value [2, 4] of the same compound?
The value was 77.33%.

What about the “IL-8 T/C [%]” value [2, 5] of the same compound?
Its value is 134.54** %.

What about the “IL-8 T/C [%]” value [2, 6] of the same compound?
Its value is 71.35%.

And the “IL-8 T/C [%]” value [2, 7]?
The value was 46.30** %.

What about the “IL-8 T/C [%]” value [2, 8] of the same compound?
The value was 116.34%.

What about the “release of IL-8” value [2, 9] of the same compound?
The value was “significant reduction”.
